Results taken from patent publication US6531453B1, “NKT cell activators containing α-glycosylceramides” (Kirin Beera Kabushiki Kaisha, priority 1997, dated 2003).

Assays:
Vα14+ NKT cells = assay: Stimulation of spleen NKT cell proliferation in C57BL/6 mice (3-color FACS analysis); format: in vivo, mouse
Procedure: A vehicle (physiological saline solution containing 0.5% Polysolvate 20) or 1, 10 or 100 ng/kg of KRN 7000 was intravenously administered to C57BL/6 mice (Japan SLC, Inc.), and the spleen of individual mice was taken out after 24 hours to prepare spleen cells by conventional methods. These spleen cells were incubated in a plastic dish for 30 minutes to prepare nonadherent cells. By removing B cells in this nonadherent cells, a lymphocyte fraction was prepared. T cells, NK cells, NKT cells and Vα14^+ NKT cells in this fraction were analyzed by the 3-color FACS analysis using the FITC-labeled anti-TCR αβ monoclonal antibody (Pharmingen), cychrome-labeled anti-NK1.1 monoclonal antibody (Pharmingen) and PE-labeled anti-Vα14 monoclonal antibody (FIG. 2). The anti-Vα14 monoclonal antibody was obtained by implanting anti-Vα14 monoclonal antibody producing hybridomas (CMS-1; available from Masaru Taniguchi et al, School of Medicine, Chiba University) in nude mice and recovering ascites from the animals to purify the antibody. In FIGS. 2A and 2B, the numbers of NK1.1 cells, TCRαβ cells and […] in the lymphocyte fraction were expressed as fluorescence intensity of the labeled antibodies against these cells.

[1] = tested on: 4% DSS-induced mouse colitis (CDF1 mice); assay: Suppression of 4% DSS-induced mouse colitis; format: in vivo; conditions: KRN 7000 100 μg/kg i.p. days 1, 5, 9, IL-12 1 μg/mouse i.p. days 1, 3, 5, 7, 9
Procedure: Ten animals per group of CDF1 mice (6 weeks of age, females) (Japan SLC Inc.) were used for the following experiment. Day 0 was defined as the day when a 4% DSS solution (4% (w/v) dextran sodium sulfate (DSS) dissolved in water) was first provided as drinking water. The animals were divided into 3 groups, i.e., a group to which 100 μg/kg of KRN 7000 were intraperitoneally administered on days 1, 5, and 9, a group to which 1 μg/mouse of IL-12 was intraperitoneally administered on days 1, 3, 5, 7 and 9, and an untreated (control) group. Body weight was measured and survival or death of the animals were observed daily. Changes in body weight and survival rate are shown in FIG. 5A and 5B, respectively.

[2] = tested on: spleen cells of RAG-1KO/Vα14tg/Vβ8.2tg mice (NKT cells); assay: Stimulation of NKT cell proliferation, [3H]thymidine incorporation in spleen cells; format: cell-based, mouse; conditions: 2 days incubation
Procedure: Stimulation of NKT cell proliferation by compounds having an α-glycosylceramide structure was studied using spleen cells of RAG-1KO/Vα14tg/Vβ8.2tg mice shown in Pharmacological Test Example 1.
Spleen cells were prepared from the spleen of RAG-1KO/Vα14tg/Vβ8.2tg mice by conventional methods. These spleen cells were suspended at 2×10^6 cells/ml in an RPMI 1640 medium supplemented with 10% FCS, and 100 μl each of the suspension were plated into wells of 96-well round-bottomed plates. Ten different kinds of compounds having an α-glycosylceramide structure shown in FIG. 12 were added to the wells of the plates at a final concentration of 1, 10 or 100 ng/ml, and the plates were incubated for 2 days. Sixteen hours after the addition of [^3H] thymidine (0.5 μCi/well), the cells were harvested. The amount of [^3H] thymidine incorporated into the cells was measured by a liquid scintillation counter.

[3] = tested on: C57BL/6 mice with MOG-induced EAE; assay: Suppression of the onset of experimental autoimmune encephalomyelitis (EAE); format: in vivo, mouse; conditions: 20 μg/kg i.p. on days 1, 5, 8, 12 and 15, FIG. 6B
Procedure: […]. Mice were immunized by subcutaneously injecting this emulsion on day 0 and day 7. Further, 500 ng of pertussis toxin were intraperitoneally administered on day 1 and […] induce experimental autoimmune encephalomyelitis (EAE) in mice. The animals were divided into 2 groups, i.e., a group to which 20 μg/kg of KRN 7000 were intraperitoneally administered on days 1, 5, 8, 12 and 15 and a group to which a vehicle (0.5%, Polysolvate 20) was administered in a similar manner. The level of EAE symptoms was observed every day.

[4] = tested on: Vα14+ NKT-deficient (Jα281KO) mice; assay: Induction of abortion in Vα14+ NKT-deficient (Jα281KO) mice; format: in vivo, mouse; conditions: same amount, same manner, PBS group 5.0%
Procedure: C57BL/6 mice (Japan SLC) were used for the following experiment. The day when a vaginal plug was observed was defined as day 0. Pregnant mice were divided into 2 groups (6 mice per group), i.e., one group to which 150 μg/kg of KRN 7000 were intravenously administered on days 7, 8 and 9, and another to which PBS (phosphate-buffered saline) was administered in the same way. On day 12, the uterus was removed to observe the state of the embryo.
When the same amount of KRN 7000 was administered to Vα14^+ NKT-deficient (Jα281KO) mice (Kawano, T. et al., Science, 278, 1626-1629 (1997)) in the same manner, the abortion rate was 5.3%, which was equivalent to that for the PBS-administered group (5.0%). The Vα14^+ NKT-deficient mice are available from Masaru Taniguchi, School of Medicine, Chiba University.

[5] = spleen, i.v., 24 hours, FIG. 2C

CCCCCCCCCCCCCCCCCCCCCCCCCC(=O)N[C@@H](CO[C@H]1O[C@H](CO)[C@H](O)[C@H](O)[C@H]1O)[C@H](O)[C@H](O)CCCCCCCCCCCCCC [KRN 7000, (2S,3S,4R)-1-(α-D-galactopyranosyloxy)-2-hexacosanoylamino-3,4-octadecanediol]
rate of NK1.1+ TCRαβ cells in the spleen lymphocyte fraction vs vehicle (Vα14+ NKT cells; 100 ng/kg i.v., 24 hours, FIG. 2A): marked increase
rate of Vβ14+ cells in NK1.1+ TCRβα+ cells vs vehicle (Vα14+ NKT cells; 100 ng/kg i.v., 24 hours, FIG. 2B): increase
numbers of NK cells in the spleen lymphocyte fractions (Vα14+ NKT cells; 10 or 100 ng/kg i.v., 24 hours, FIG. 2C): equal to those from the vehicle-administered mice
increase in numbers of Vα14+ NKT cells in the spleen lymphocyte fraction vs vehicle (Vα14+ NKT cells; i.v., 24 hours, FIG. 2C): more than four times
increase in numbers of Vα14− NKT cells in the spleen lymphocyte fraction vs vehicle (Vα14+ NKT cells; i.v., 24 hours, data not shown): more than three times
numbers of Vα14+ cells in the liver (Vα14+ NKT cells; liver, data not shown): marked increase
numbers of Vα14− NKT cells in the liver (Vα14+ NKT cells; liver, data not shown): marked increase
increase in the numbers of T cells vs vehicle-administered mice (Vα14+ NKT cells; [5]): about 2 fold
increase in the numbers of lymphocyte fractions vs vehicle-administered mice (Vα14+ NKT cells; [5]): about 2 fold
time of weight loss as compared with the control group ([1]; FIG. 5A): at a later period
survival period as compared with the control group ([1]; FIG. 5B): significantly longer
[3H] Thymidine incorporation (cpm) ([2]; 1 ng/ml, vehicle 2090): 40064 cpm
[3H] Thymidine incorporation (cpm) ([2]; 10 ng/ml, vehicle 2056): 74669 cpm
[3H] Thymidine incorporation (cpm) ([2]; 100 ng/ml, vehicle 2014): 102543 cpm
mice that died of EAE ([3]; 10 mice, vehicle: 80% died): 2
mice showing the EAE onset ([3]; vehicle: all mice): 4 out of 10
abortion rate [4]: 5.3%
